# Measurements reported in ChEMBL document CHEMBL1124152, “Conformationally constrained renin inhibitory peptides: gamma-lactam-bridged dipeptide isostere as conformational restriction” (J Med Chem, 1988).
# Key:
# Renin = biological target: T1, Renin (Homo sapiens, UniProt P00797); test: Inhibitory activity against human plasma renin; type: cell-free
# T1 sequence (P00797 whole entry): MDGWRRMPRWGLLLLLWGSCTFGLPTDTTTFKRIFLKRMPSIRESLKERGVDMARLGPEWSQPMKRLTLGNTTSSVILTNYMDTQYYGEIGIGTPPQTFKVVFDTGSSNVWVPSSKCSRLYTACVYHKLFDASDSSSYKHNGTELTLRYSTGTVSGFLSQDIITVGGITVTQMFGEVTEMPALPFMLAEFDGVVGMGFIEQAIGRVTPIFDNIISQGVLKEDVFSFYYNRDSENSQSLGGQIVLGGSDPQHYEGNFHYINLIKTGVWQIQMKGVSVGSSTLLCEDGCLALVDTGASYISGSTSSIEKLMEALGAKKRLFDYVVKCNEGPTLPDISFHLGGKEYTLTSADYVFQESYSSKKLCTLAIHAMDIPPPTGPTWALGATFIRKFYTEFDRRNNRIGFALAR
# Renin (Homo sapiens) = biological target: T2, Renin (Homo sapiens) (UniProt P00797); test: Inhibitory activity against human plasma renin at 10e-5 M; type: cell-free
# T2 sequence (whole entry): T1 sequence (P00797 whole entry)
SMILES,IC50 (Renin),inhibition (Renin (Homo sapiens))
CCCC[C@H](NC(=O)CCc1ccccc1)C(=O)N[C@@H](CC(C)C)[C@@H](O)CC(=O)N[C@H](C(=O)NCc1ccccn1)[C@H](C)CC,0.35 µM,
CCCC[C@H](NC(=O)CCc1ccccc1)C(=O)N[C@@H](CC(C)C)[C@@H](O)C[C@H](C(=O)N[C@H](C(=O)NCc1ccccn1)[C@H](C)CC)C(C)C,0.12 µM,
CCCC[C@H](NC(=O)[C@H](Cc1ccccc1)NC(=O)OCc1ccccc1)C(=O)N[C@@H](CC(C)C)[C@@H](O)C[C@H](C(=O)N[C@H](C(=O)NCc1ccccn1)[C@H](C)CC)C(C)C,0.026 µM,
CCCC[C@@H](C(=O)N[C@@H](CC(C)C)[C@@H](O)C[C@H](C(=O)N[C@H](C(=O)NCc1ccccn1)[C@@H](C)CC)C(C)C)N1CCC(Cc2ccccc2)C1=O (stereo in doubt; form 1),0.027 µM,
CCCC[C@@H](C(=O)N[C@@H](CC(C)C)[C@@H](O)C[C@H](C(=O)N[C@H](C(=O)NCc1ccccn1)[C@H](C)CC)C(C)C)N1CCC(Cc2ccccc2)(NC(=O)OCc2ccccc2)C1=O (stereo in doubt; form 2),0.0065 µM,

# Next, values leading:
IC50 (Renin),inhibition (Renin (Homo sapiens)),SMILES
0.0065 µM,,CCCC[C@@H](C(=O)N[C@@H](CC(C)C)[C@@H](O)C[C@H](C(=O)N[C@H](C(=O)NCc1ccccn1)[C@H](C)CC)C(C)C)N1CCC(Cc2ccccc2)(NC(=O)OCc2ccccc2)C1=O (stereo in doubt; form 1)
,46%,CCCC[C@@H](C(=O)N[C@@H](CC(C)C)[C@@H](O)CC(=O)N[C@H](C(=O)NCc1ccccn1)[C@H](C)CC)N1CCC(Cc2ccccc2)C1=O (stereo in doubt; form 1)
0.014 µM,,CCCC[C@@H](C(=O)N[C@@H](CC(C)C)[C@@H](O)C[C@H](C(=O)N[C@H](C(=O)NCc1ccccn1)[C@@H](C)CC)C(C)C)N1CCC(Cc2ccccc2)C1=O (stereo in doubt; form 2)
,46%,CCCC[C@@H](C(=O)N[C@@H](CC(C)C)[C@@H](O)CC(=O)N[C@H](C(=O)NCc1ccccn1)[C@H](C)CC)N1CCC(Cc2ccccc2)C1=O (stereo in doubt; form 2)
